Data as given in patent US12365651B2, “Use of pirfenidone and derivatives for modulation of B lymphocyte activity and organ protection from acute tissue damage” (Washington University, priority 2017, dated 2025).

System: PDICs obtained from thioglycolate-stimulated TIRAP−/− mice
Assay: CD86 on CD19+ cells in cultured PDICs from TIRAP−/− mice
Assay type: cell-based, mouse
Settings: LPS stimulated cultures
Text: Noting that prior studies have shown that B cells are activated by engagement of TLR by damage-associated molecular patterns (DAMPs) released by necrotic cells (17), and noting that TLR signaling was present in CD19+CD11b− lymphocytes sorted from DT injured animals but absent in the same cells sorted from DT injured animals treated with Pirfenidone, we focused our in vitro studies on CD19+ cells using lipolysaccharide (a classic TLR4 agonist and a T-independent antigen), as well as necrotic cardiac cell extracts, which we and others have shown signal through TLR4 (18). […] To further explore the role of TLR mediated signaling, we repeated these experiments in PDICs obtained from thioglycolate-stimulated TIRAP−/− mice. […] Importantly, both mechanisms were sensitive to treatment with Pirfenidone (FIG. 10E and FIG. 10F).
Peritoneal derived inflammatory cells (PDICs) were harvested from the peritoneal cavity of thioglycolate-stimulated wild-type and TIRAP−/− deficient mice. PDIC cultures contain an admixture of inflammatory cells, including CD19+ B cells (40). TIRAP deficient mice were a gift from Dr. Ruslan Medzhitov (Yale University, New Haven, CT). PDICs were harvested on day 4 after i.p. injection of 1 ml of thioglycolate medium (Millipore, Billerica, MA, USA). […]

SMILES: Cc1ccc(=O)n(-c2ccccc2)c1 [Pirfenidone, 5 methyl-1-phenyl-2-[H] pyridone]
- CD19+ CD86high lymphocytes: small but significant (p<0.001) decrease
